Measurements from patent US9156872B2, “2′-azido substituted nucleoside derivatives and methods of use thereof for the treatment of viral diseases” (priority 2011, dated 2015).
Where two headings read alike, the source gives them in different places.

Test system: HCV replicon cells
Assay: Cell-based HCV replicon assay (replicon RNA by Taqman real time PCR)
Settings: read-out: 1b EC50
[1] = Hepatitis C virus, 72 h, HCV replicon 1b, cells harvested on day 3

Structure (SMILES) | EC50 (Hepatitis C virus, 72 h) [nM] | also measured
CCCCOC(=O)[C@H](C)NP(=O)(OC[C@H]1O[C@@H](n2ccc(N)nc2=O)[C@](C)(N=[N+]=[N-])[C@@H]1O)Oc1cccc2ccccc12 (stereo partly drawn) [Compound 3] | 1200 | –
C[C@@]1(N=[N+]=[N-])[C@H](O)[C@@H](CO)O[C@H]1n1ccc(=O)[nH]c1=O [Compound 4] | – | EC50 [1]: > 100000 nM
COC(=O)[C@H](C)NP(=O)(OC[C@H]1O[C@@H](n2ccc(=O)[nH]c2=O)[C@](C)(N=[N+]=[N-])[C@@H]1O)Oc1ccccc1 (stereo partly drawn) [Compound 5] | 3300 | –
CCCCOC(=O)[C@H](C)NP(=O)(OC[C@H]1O[C@@H](n2ccc(=O)[nH]c2=O)[C@](C)(N=[N+]=[N-])[C@@H]1O)Oc1cccc2ccccc12 (stereo partly drawn) [Compound 6] | 1100 | –
CCOc1nc(N)nc2c1ncn2[C@@H]1O[C@H](CO)[C@@H](O)[C@@]1(C)N=[N+]=[N-] [Compound 8] | – | EC50 [1]: > 100000 nM
CCOc1nc(N)nc2c1ncn2[C@@H]1O[C@H](COP(=O)(N[C@@H](C)C(=O)OC)Oc2ccccc2)[C@@H](O)[C@@]1(C)N=[N+]=[N-] (stereo partly drawn) [Compound 9] | 800 | –
CCOC(=O)[C@H](C)NP(=O)(OC[C@H]1O[C@@H](n2cnc3c(OCC)nc(N)nc32)[C@](C)(N=[N+]=[N-])[C@@H]1O)Oc1ccccc1 (stereo partly drawn) [Compound 10] | 900 | –
CCOc1nc(N)nc2c1ncn2[C@@H]1O[C@H](COP(=O)(N[C@@H](C)C(=O)OCC(C)(C)C)Oc2ccccc2)[C@@H](O)[C@@]1(C)N=[N+]=[N-] (stereo partly drawn) [Compound 11] | 1100 | –
CCCCOC(=O)[C@H](C)NP(=O)(OC[C@H]1O[C@@H](n2cnc3c(OCC)nc(N)nc32)[C@](C)(N=[N+]=[N-])[C@@H]1O)Oc1cccc2ccccc12 (stereo partly drawn) [Compound 12] | 1300 | –
CCOC(=O)[C@H](C)NP(=O)(OC[C@H]1O[C@@H](n2ccc(N)nc2=O)[C@](C)(N=[N+]=[N-])[C@@H]1O)Oc1ccccc1 (stereo partly drawn) [Compound 13] | 6400 | –
C[C@H](NP(=O)(OC[C@H]1O[C@@H](n2ccc(N)nc2=O)[C@](C)(N=[N+]=[N-])[C@@H]1O)Oc1ccccc1)C(=O)OCC(C)(C)C (stereo partly drawn) [Compound 14] | 32000 | –
CCOC(=O)[C@H](C)NP(=O)(OC[C@H]1O[C@@H](n2ccc(=O)[nH]c2=O)[C@](C)(N=[N+]=[N-])[C@@H]1O)Oc1ccccc1 (stereo partly drawn) [Compound 15] | 1400 | –
C[C@H](NP(=O)(OC[C@H]1O[C@@H](n2ccc(=O)[nH]c2=O)[C@](C)(N=[N+]=[N-])[C@@H]1O)Oc1ccccc1)C(=O)OCC(C)(C)C (stereo partly drawn) [Compound 16] | 1000 | –
C[C@@]1(N=[N+]=[N-])[C@H](O)[C@@H](CO)O[C@H]1n1cnc2c(=O)[nH]c(N)nc21 [Compound 17] | – | EC50 [1]: > 100000 nM
COP1(=O)OC[C@H]2O[C@@H](n3ccc(=O)[nH]c3=O)[C@](C)(N=[N+]=[N-])[C@@H]2O1 (stereo partly drawn) [Compound 18] | > 100000 | –
CC(C)OP1(=O)OC[C@H]2O[C@@H](n3ccc(N)nc3=O)[C@](C)(N=[N+]=[N-])[C@@H]2O1 (stereo partly drawn) [Compound 19] | – | EC50 [1]: > 100000 nM
CCOc1nc(N)nc2c1ncn2[C@@H]1O[C@H](COP(=O)(N[C@@H](C)C(=O)OC(C)C)Oc2ccccc2)[C@@H](O)[C@@]1(C)N=[N+]=[N-] (stereo partly drawn) [Compound 20] | 1000 | –
CC(C)OC(=O)[C@H](C)NP(=O)(OC[C@H]1O[C@@H](n2ccc(N)nc2=O)[C@](C)(N=[N+]=[N-])[C@@H]1O)Oc1ccccc1 (stereo partly drawn) [Compound 22] | 3100 | –
CCOc1nc(N)nc2c1ncn2[C@@H]1O[C@@H]2COP(=O)(OC(C)C)O[C@H]2[C@@]1(C)N=[N+]=[N-] (stereo partly drawn) [Compound 23] | – | EC50 [1]: 69000 nM
CCCOP1(=O)OC[C@H]2O[C@@H](n3cnc4c(OCC)nc(N)nc43)[C@](C)(N=[N+]=[N-])[C@@H]2O1 (stereo partly drawn) [Compound 24] | – | EC50 [1]: > 100000 nM
CCOc1nc(N)nc2c1ncn2[C@@H]1O[C@@H]2COP(=O)(OC)O[C@H]2[C@@]1(C)N=[N+]=[N-] (stereo partly drawn) [Compound 25] | 13000 | –
CCCCOC(=O)[C@H](C)NP(=O)(OC[C@H]1O[C@@H](n2ccc(=O)[nH]c2=O)[C@](C)(N=[N+]=[N-])[C@@H]1O)Oc1ccccc1 (stereo partly drawn) [Compound 26] | 600 | –
CCCCOC(=O)[C@H](C)NP(=O)(OC[C@H]1O[C@@H](n2cnc3c(OCC)nc(N)nc32)[C@](C)(N=[N+]=[N-])[C@@H]1O)Oc1ccccc1 (stereo partly drawn) [Compound 27] | 100 | –
CCCOC(=O)[C@H](C)NP(=O)(OC[C@H]1O[C@@H](n2ccc(=O)[nH]c2=O)[C@](C)(N=[N+]=[N-])[C@@H]1O)Oc1ccccc1 (stereo partly drawn) [Compound 28] | 2300 | –
CCCOC(=O)[C@H](C)NP(=O)(OC[C@H]1O[C@@H](n2cnc3c(OCC)nc(N)nc32)[C@](C)(N=[N+]=[N-])[C@@H]1O)Oc1ccccc1 (stereo partly drawn) [Compound 29] | 500 | –
CCCOC(=O)[C@H](C)NP(=O)(OC[C@H]1O[C@@H](n2ccc(N)nc2=O)[C@](C)(N=[N+]=[N-])[C@@H]1O)Oc1ccccc1 (stereo partly drawn) [Compound 30] | 3300 | –

Structure (SMILES) | EC50 (Hepatitis C virus, 72 h) [nM] | also measured
CCCCOC(=O)[C@H](C)NP(=O)(OC[C@H]1O[C@@H](n2ccc(N)nc2=O)[C@](C)(N=[N+]=[N-])[C@@H]1O)Oc1ccccc1 (stereo partly drawn) [Compound 31] | 4900 | –
CCCOP1(=O)OC[C@H]2O[C@@H](n3ccc(N)nc3=O)[C@](C)(N=[N+]=[N-])[C@@H]2O1 (stereo partly drawn) [Compound 33] | – | EC50 [1]: > 100000 nM
CCOc1nc(N)nc2c1ncn2[C@@H]1O[C@H](COP(=O)(N[C@@H](C)C(=O)OC)Oc2ccc(F)cc2)[C@@H](O)[C@@]1(C)N=[N+]=[N-] (stereo partly drawn) [Compound 35] | 1600 | –
COC(=O)[C@H](C)NP(=O)(OC[C@H]1O[C@@H](n2ccc(N)nc2=O)[C@](C)(N=[N+]=[N-])[C@@H]1O)Oc1ccc(F)cc1 (stereo partly drawn) [Compound 36] | 40000 | –
CC(C)COC(=O)[C@H](C)NP(=O)(OC[C@H]1O[C@@H](n2ccc(=O)[nH]c2=O)[C@](C)(N=[N+]=[N-])[C@@H]1O)Oc1ccccc1 (stereo partly drawn) [Compound 37] | – | EC50: 3500 nM
CC(C)COC(=O)[C@H](C)NP(=O)(OC[C@H]1O[C@@H](n2ccc(=O)[nH]c2=O)[C@](C)(N=[N+]=[N-])[C@@H]1O)Oc1ccccc1 (stereo partly drawn) [Compound 38] | – | EC50: 300 nM
CC(C)OC(=O)[C@H](C)NP(=O)(OC[C@H]1O[C@@H](n2ccc(=O)[nH]c2=O)[C@](C)(N=[N+]=[N-])[C@@H]1O)Oc1ccccc1Cl (stereo partly drawn) [Compound 39] | 49000 | –
COC(=O)[C@H](C)NP(=O)(OC[C@H]1O[C@@H](n2ccc(=O)[nH]c2=O)[C@](C)(N=[N+]=[N-])[C@@H]1O)Oc1ccccc1Cl (stereo partly drawn) [Compound 40] | 4000 | –
COC(=O)[C@H](C)NP(=O)(OC[C@H]1O[C@@H](n2ccc(=O)[nH]c2=O)[C@](C)(N=[N+]=[N-])[C@@H]1O)Oc1cccc2ccccc12 (stereo partly drawn) [Compound 41] | 3 | –
CC(C)OC(=O)[C@H](C)NP(=O)(OC[C@H]1O[C@@H](n2ccc(=O)[nH]c2=O)[C@](C)(N=[N+]=[N-])[C@@H]1O)Oc1ccc2c(c1)OCO2 (stereo partly drawn) [Compound 42] | 25000 | –
CC(C)OP1(=O)OC[C@H]2O[C@@H](n3ccc(=O)[nH]c3=O)[C@](C)(N=[N+]=[N-])[C@@H]2O1 (stereo partly drawn) [Compound 43] | – | EC50 [1]: > 100000 nM
CC(C)OP1(=O)OC[C@H]2O[C@@H](n3ccc(=O)[nH]c3=O)[C@](C)(N=[N+]=[N-])[C@@H]2O1 (stereo partly drawn) [Compound 44] | – | EC50 (HCV replicon 1b, cells harvested on day 3): > 100000 nM
C[C@@H](NP(=O)(OC[C@H]1O[C@@H](n2ccc(=O)[nH]c2=O)[C@](C)(N=[N+]=[N-])[C@@H]1O)Oc1ccccc1)C(=O)OCc1ccccc1 (stereo partly drawn) [Compound 45] | 5600 | –
COC(=O)[C@H](C)NP(=O)(OC[C@H]1O[C@@H](n2ccc(N)nc2=O)[C@](C)(N=[N+]=[N-])[C@@H]1O)Oc1cccc2ccccc12 (stereo partly drawn) [Compound 47] | 400 | –
CC(C)COC(=O)[C@H](C)NP(=O)(OC[C@H]1O[C@@H](n2ccc(N)nc2=O)[C@](C)(N=[N+]=[N-])[C@@H]1O)Oc1ccccc1 (stereo partly drawn) [Compound 48] | 3100 | –
CCOC(=O)[C@H](C)NP(=O)(OC[C@H]1O[C@@H](n2ccc(=O)[nH]c2=O)[C@](C)(N=[N+]=[N-])[C@@H]1O)Oc1ccc(Cl)cc1 (stereo partly drawn) [Compound 49] | 5300 | –
COC(=O)[C@H](C)NP(=O)(OC[C@H]1O[C@@H](n2ccc(=O)[nH]c2=O)[C@](C)(N=[N+]=[N-])[C@@H]1O)Oc1ccc(Cl)cc1 (stereo partly drawn) [Compound 50] | 4000 | –
COc1nc(N)nc2c1ncn2[C@@H]1O[C@H](CO)[C@@H](O)[C@@]1(C)N=[N+]=[N-] [Compound 51] | – | EC50 [1]: > 100000 nM
CCCCOC(=O)[C@H](C)NP(=O)(OC[C@H]1O[C@@H](n2cnc3c(OC)nc(N)nc32)[C@](C)(N=[N+]=[N-])[C@@H]1O)Oc1cccc2ccccc12 (stereo partly drawn) [Compound 52] | 1200 | –
COC(=O)[C@H](C)NP(=O)(OC[C@H]1O[C@@H](n2cnc3c(OC)nc(N)nc32)[C@](C)(N=[N+]=[N-])[C@@H]1O)Oc1ccccc1 (stereo partly drawn) [Compound 53] | 700 | –
CCOC(=O)[C@H](C)NP(=O)(OC[C@H]1O[C@@H](n2cnc3c(OC)nc(N)nc32)[C@](C)(N=[N+]=[N-])[C@@H]1O)Oc1ccccc1 (stereo partly drawn) [Compound 54] | – | EC50: 300 nM
COc1nc(N)nc2c1ncn2[C@@H]1O[C@H](COP(=O)(N[C@@H](C)C(=O)OCC(C)(C)C)Oc2ccccc2)[C@@H](O)[C@@]1(C)N=[N+]=[N-] (stereo partly drawn) [Compound 55] | 1100 | –
COC(=O)[C@H](C)NP(=O)(OC[C@H]1O[C@@H](n2cnc3c(OC)nc(N)nc32)[C@](C)(N=[N+]=[N-])[C@@H]1O)Oc1cccc2ccccc12 (stereo partly drawn) [Compound 57] | 400 | –
CCOc1nc(N)nc2c1ncn2[C@@H]1O[C@H](COP(=O)(N[C@@H](C)C(=O)OC)Oc2ccccc2Cl)[C@@H](O)[C@@]1(C)N=[N+]=[N-] (stereo partly drawn) [Compound 58] | 500 | –
CCOc1nc(N)nc2c1ncn2[C@@H]1O[C@H](COP(=O)(N[C@@H](C)C(=O)OC(C)C)Oc2ccccc2Cl)[C@@H](O)[C@@]1(C)N=[N+]=[N-] (stereo partly drawn) [Compound 59] | 10000 | –
